Laboratory results from patent US7122551B2, “Metalloproteinase inhibitor compounds” (AstraZeneca AB, priority 2000, dated 2006).

Legend:
[1] = biological activity of separated enantiomers / diastereomers (test not specified); conditions: enantiomers compared by order of elution; test and target not stated

SMILES | melting point [°C] | Biological activity of separated enantiomers [1]
O=CN(O)C(CCc1ncc(F)cn1)CS(=O)(=O)N1CCN(c2ccc(Cl)cn2)CC1 (stereo not drawn) [Example 2, N-[1-([4-(5-chloropyridin-2-yl)piperazino]sulfonylmethyl)-3-(5-fluoropyrimidin-2-yl)propyl]-N-hydroxyformamide] | 154 to 155 | –
O=CN(O)[C@@H](CCCc1ncccn1)CS(=O)(=O)N1CCN(c2ccc(Cl)cn2)CC1 [Example 4, N-[(1S)-1-({[4-(5-chloropyridin-2-yl)piperazino]sulfonyl}methyl)-4-(pyrimidin-2-yl)butyl]-N-hydroxyformamide] | 124.5 to 126.5 | –
O=CN(O)[C@@H](CCc1ncccn1)CS(=O)(=O)N1CCN(c2ccc(Cl)cn2)CC1 [Example 6 2nd enantiomer eluted, N-[(1S)-1-({[4-(5-chloropyridin-2-yl)piperazino]sulfonyl}methyl)-3-(pyrimidin-2-yl)propyl]-N-hydroxyformamide] | – | Biological activity lies in the compound eluted second from the column
